{"source": "the supplement of paper PMC10307832", "test_in_all_cases": "relative viability (nuclei count vs DMSO), 5 days (fraction); higher = more cells survive", "key": {"XMD13-2 + Alpelisib": {"compound": "C1CC1C(=O)NC2=NNC3=C2C=CC(=C3)C4=CC(=CC=C4)C(=O)NC5CC5 [XMD13-2] + Cc1nc(NC(=O)N2CCC[C@H]2C(N)=O)sc1-c1ccnc(C(C)(C)C(F)(F)F)c1 [Alpelisib] (partner 2 µM)", "how_it_was_run": "(§1)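 After 5 days of treatment, lung cancer cells in 1536-well plates were fixed and stained in a single step (final 0.05% Triton X-100, 1% formaldehyde, 1 ug/ml Hoechst) and their nuclei counted on 4× images. Treatment had been applied by pin tool the day after seeding as one drug alone or as a fixed anchor-drug dose with five library-drug doses (not always all listed) in √10 steps. Relative viability is the nuclei count of treated wells divided by that of vehicle wells, and values are medians of duplicate plates.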"}, "ALW-II-49-7 + Alpelisib": {"compound": "Cc1ccc(C(=O)Nc2cccc(C(F)(F)F)c2)cc1Nc1cncc(C(N)=O)c1 [ALW-II-49-7] + Cc1nc(NC(=O)N2CCC[C@H]2C(N)=O)sc1-c1ccnc(C(C)(C)C(F)(F)F)c1 [Alpelisib] (partner 2 µM)", "how_it_was_run": "as §1"}, "ALW-II-49-7 + Phenformin": {"compound": "Cc1ccc(C(=O)Nc2cccc(C(F)(F)F)c2)cc1Nc1cncc(C(N)=O)c1 [ALW-II-49-7] + N=C(N)NC(=N)NCCc1ccccc1 [Phenformin] (partner 250 µM)", "how_it_was_run": "as §1"}, "Dasatinib + Luminespib": {"compound": "Cc1nc(Nc2ncc(C(=O)Nc3c(C)cccc3Cl)s2)cc(N2CCN(CCO)CC2)n1 [Dasatinib] + CCNC(=O)c1noc(-c2cc(C(C)C)c(O)cc2O)c1-c1ccc(CN2CCOCC2)cc1 [Luminespib] (partner 0.01 µM)", "how_it_was_run": "as §1"}}}
{"cell line": "UMC-11", "values": [{"measurement": "relative viability", "setting": "XMD13-2 + Alpelisib; first compound 0.05 µM", "value": 1.22}, {"measurement": "relative viability", "setting": "XMD13-2 + Alpelisib; first compound 0.1581 µM", "value": 1.07}, {"measurement": "relative viability", "setting": "XMD13-2 + Alpelisib; first compound 0.5 µM", "value": 0.944}, {"measurement": "relative viability", "setting": "XMD13-2 + Alpelisib; first compound 1.581 µM", "value": 0.924}, {"measurement": "relative viability", "setting": "XMD13-2 + Alpelisib; first compound 5 µM", "value": 1.13}, {"measurement": "relative viability", "setting": "ALW-II-49-7 + Alpelisib; first compound 0.08 µM", "value": 0.841}, {"measurement": "relative viability", "setting": "ALW-II-49-7 + Alpelisib; first compound 0.253 µM", "value": 1}, {"measurement": "relative viability", "setting": "ALW-II-49-7 + Alpelisib; first compound 2.53 µM", "value": 1.06}, {"measurement": "relative viability", "setting": "ALW-II-49-7 + Alpelisib; first compound 8 µM", "value": 0.971}, {"measurement": "relative viability", "setting": "ALW-II-49-7 + Phenformin; first compound 0.08 µM", "value": 0.347}, {"measurement": "relative viability", "setting": "ALW-II-49-7 + Phenformin; first compound 0.253 µM", "value": 0.372}, {"measurement": "relative viability", "setting": "ALW-II-49-7 + Phenformin; first compound 0.8 µM", "value": 0.352}, {"measurement": "relative viability", "setting": "ALW-II-49-7 + Phenformin; first compound 2.53 µM", "value": 0.304}, {"measurement": "relative viability", "setting": "ALW-II-49-7 + Phenformin; first compound 8 µM", "value": 0.268}, {"measurement": "relative viability", "setting": "Dasatinib + Luminespib; first compound 0.005 µM", "value": 0.874}, {"measurement": "relative viability", "setting": "Dasatinib + Luminespib; first compound 0.01581 µM", "value": 0.78}, {"measurement": "relative viability", "setting": "Dasatinib + Luminespib; first compound 0.05 µM", "value": 0.607}, {"measurement": "relative viability", "setting": "Dasatinib + Luminespib; first compound 0.1581 µM", "value": 0.316}, {"measurement": "relative viability", "setting": "Dasatinib + Luminespib; first compound 0.5 µM", "value": 0.328}]}
